Several values for one entry are separate records, joined by “and”; a condition that tells them apart may be missing. Identical values can stand only once. Marks after values point to notes of the source that are not given here.
How the values were obtained:
[1] = test system: S. pneumoniae; assay: Checkerboard assay (FIC index); type: cell-based, Streptococcus pneumoniae; settings: antibiotic combined with PEP35;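 also: each agent diluted from 0.03 to 4 times its MIC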
Description: (§1) The checkerboard assays were carried out as described by Eliopoulos and Moellering (Chapter 9) in Antibiotic in Laboratory Medicine, Lorian Ed. 1996 as well as Bonapace et al. Diagnostic Microbiology and Infectious Diseases 2002; 44:363-366 and Bonapace et al. Diagnostic Microbiology and Infectious Diseases 2000; 38:43-50. In brief, checkerboard assays were performed in 96 well microtitre trays using an 8-by-8 well configuration. […] 96-well custom designed microtitre plates contained 100 ul/well of cation adjusted Mueller-Hinton broth (eg. for Enterobacteriaceae) with or without lysed horse blood (2-5% V/V) [eg. for S. pneumoniae] and were inoculated to achieve a final concentration of approximately 5×10^5 CFU/ml and incubated in ambient air for 24 hours prior to reading. Colony counts were performed periodically to confirm inocula. Quality control was performed every two weeks using a variety of ATCC QC organisms including; S. pneumoniae 49619, S. aureus 29213, E. faecalis 29212, E. coli 25922 and P. aeruginosa 27853. For all antimicrobials as well as PEP35, CLSI criteria was used.
(§2) The fractional inhibitory concentration index (FIC index) was used to interpret synergy, antagonism or additivity/indifference. FIC index=FIC of drug A+FIC of drug B where:
(§3) The FIC of drug A and drug B is calculated as follows, FIC drug A=MIC of drug A in combination/MIC of drug A alone and FIC of drug B=MIC of drug B in combination/MIC of drug B alone. Synergy is defined as FIC index ≦0.5, additivity/indifference FIC >0.5-4 and antagonism FIC index >4.
(§4) Antimicrobials used included PEP35, cefazolin, ceftriaxone, vancomycin, linezolid, tigecycline and daptomycin versus Gram-positive cocci and PEP35, gentamicin, levofloxacin, piperacillin/tazobactam, meropenem and colistin (Polymyxin E) versus Gram-negative bacilli. These agents were obtained as laboratory grade powders from their respective manufacturers. Stock solutions were prepared and dilutions made as described by the Clinical Laboratory Standards Institute (2005 CLSI).
(§5) Organisms included Gram-positive cocci (2 strains of each): Methicillin-susceptible Staphylococcus aureus (MSSA), community-associated (CA) and healthcare-associated (HA) methicillin-resistant Staphylococcus aureus (MRSA), vancomycin-intermediate Staphylococcus aureus (VISA), vancomycin-resistant Staphylococcus aureus (VRSA), methicillin-resistant Staphylococcus epidermidis (MRSE), Streptococcus pyogenes, Streptococcus agalactiae, Streptococcus pneumoniae, Enterococcus faecalis, Enterococcus faecium and vancomycin-resistant enterococcus (VRE). Gram-negative bacilli tested (2 strains of each) included: E. coli, Pseudomonas aeruginosa, Klebsiella pneumoniae, K. oxytoca, Enterobacter cloacae, P. mirabilis and Stenotrophomonas maltophilia. MIC testing, following two subcultures from frozen stock were determined by the CLSI 2005 approved broth microdilution method.

[2] = test system: S. pyogenes; assay: Checkerboard assay (FIC index); type: cell-based, Streptococcus pyogenes; settings: antibiotic combined with PEP35
Description: as §1, §2, §3, §4, §5

[3] = test system: VISA; assay: MIC (CLSI broth dilution), agent alone; type: cell-based, Staphylococcus aureus; parameters: unit: µg/mL
Description: VISA (strains 92, 95 and 96), VRSA (strains 105 and 106) and E. coli (strain 69717) isolates were also tested. One MSSA was used as a control. All MICs were assessed using CLSI guidelines. Also assessed was the activity of cefazolin, ceftriazone, meropenem, and a piperacillin/tazobactam combination antibiotic. Minimum inhibitory concentration (MIC) is the lowest concentration of an antimicrobial that will inhibit the visible growth of a microorganism after incubation.
Antimicrobial Susceptibility Testing: A custom designed panel of antimicrobials was created. The panel included: PEP35, penicillin, piperacillin/tazobactam, cefazolin, ceftriaxone, meropenem, clarithromycin, clindamycin, gentamicin, amikacin, vancomycin, ciprofloxacin, levofloxacin, moxifloxacin, linezolid, trimethoprim/sulfamethoxazole and doxycycline. These agents were obtained as laboratory grade powders from their respective manufacturers. Stock solutions were prepared and dilutions made as described by the Clinical Laboratory Standards Institute (2005 CLSI). Following two subcultures from frozen stock the MICs of the antimicrobial agents for the isolates were determined by the CLSI 2005 approved broth macrodilution method. Briefly, test tubes containing doubling antibiotic dilutions (2 ml per tube) of cation adjusted Mueller-Hinton broth (eg. for Enterobacteriaceae) with or without lysed horse blood (2-5% V/V) [eg. for S. pneumoniae] were inoculated to achieve a final concentration of approximately 5×10^5 CFU/ml and incubated in ambient air for 24 hours prior to reading. Colony counts were performed periodically to confirm inocula. Quality control was performed every two weeks using a variety of ATCC QC organisms including; S. aureus 29213, E. faecalis 29212, E. coli 25922 and P. aeruginosa 27853. For all antimicrobials as well as PEP35, CLSI criteria were used.
One MSSA was used as a control. All MICs were assessed using CLSI guidelines.

[4] = test system: E. coli; assay: Checkerboard assay (FIC index); type: cell-based, Escherichia coli; settings: for synergy (in words): with β-lactams, against E. coli
Description: Checkerboard assays were carried out as described by Bonapace et al.
as §1, with “Diagnostic” for “The checkerboard assays were carried out as described by Eliopoulos and Moellering (Chapter 9) in Antibiotic in Laboratory Medicine, Lorian Ed. 1996 as well as Bonapace et al. Diagnostic”, “2002; 44:363-366.” for “2002; 44:363-366 and Bonapace et al. Diagnostic Microbiology and Infectious Diseases 2000; 38:43-50.”, “27853. […] All peptides were assessed for synergy with β-lactams and vancomycin.” for “27853.”, “as the peptides,” for “as PEP35,”, “criteria were” for “criteria was”
as §2
as §3, with “was” for “is”, “additivity/indifference defined as a” for “additivity/indifference”, “between 0.5 and 4” for “>0.5-4”, “antagonism defined as an” for “antagonism”
as §1, §3, §4
Organisms included Gram-positive cocci (2 strains of each): Methicillin-susceptible Staphylococcus aureus (MSSA), community-associated (CA) and healthcare-associated (HA) methicillin-resistant Staphylococcus aureus (MRSA), vancomycin-intermediate Staphylococcus aureus (VISA), vancomycin-resistant Staphylococcus aureus (VRSA), methicillin-resistant Staphylococcus epidermidis (MRSE), Streptococcus pyogenes, Streptococcus agalactiae, Streptococcus pneumoniae, Enterococcus faecalis, Enterococcus faecium and vancomycin-resistant enterococcus (VRE). […]

[5] = S. pneumoniae-Pen I 72302 (MHB)
[6] = S. pneumoniae-Pen I 78663 (MHB)
[7] = S. pneumoniae-Pen R 76065 (MHB)
[8] = S. pneumoniae-Pen R 78519 (MHB)
[9] = S. pneumoniae-Pen S 70400 (MHB)
[10] = S. pneumoniae-Pen S 71263 (MHB)
[11] = antibiotic combined with PEP35, E. coli 69716
[12] = β-lactam combined with HybPEP35-1, E. coli 69716
[13] = β-lactam combined with PEP-52, E. coli 69716
[14] = β-lactam combined with Scrambled PEP35, E. coli 69716
[15] = antibiotic combined with PEP35, E. coli 70752

Molecule | Avg ΣFIC (range) [1, 5] | Avg ΣFIC (range) [1, 6] | Avg ΣFIC (range) [1, 7] | Avg ΣFIC (range) [1, 8] | Avg ΣFIC (range) [1, 9] | Avg ΣFIC (range) [1, 10] | Avg ΣFIC (range) ([2]; S. pyogenes 77765 (MHB)) | Avg ΣFIC (range) ([2]; S. pyogenes 79531 (MHB)) | MIC ([3]; VISA 92) | MIC ([3]; VISA 92, in µg/mL) | MIC ([3]; VISA 95, in µg/mL) | MIC ([3]; VISA 96) | MIC ([3]; VISA 96, in µg/mL) | Avg ΣFIC (range) [4, 12] | Avg ΣFIC (range) [4, 13] | Avg ΣFIC (range) [4, 14] | other results
Cc1nnc(SCC2=C(C(=O)O)N3C(=O)[C@@H](NC(=O)Cn4cnnn4)[C@H]3SC2)s1 [Cefazolin] | 1.1 (1.0-1.25) | 1.1 (1.0-1.25) | 0.70 (0.53-1.06) | 0.97 (0.75-1.12) | 0.68 (0.515-1.06) | 0.99 (0.62-1.25) | 1.04 (0.75-1.25) | 1.19 (1.03-1.5) | 128/128 | 128 | 128 and 64 | 32/32 | 64 and 32 | 1.1 | >1* | 1.1 | MIC ([3]; VISA 95, listed as CEFAZOLIN, in µg/mL): 128; Avg ΣFIC (range) [4, 11]: 1.1
CCCCCCCCCC(=O)N[C@@H](Cc1c[nH]c2ccccc12)C(=O)N[C@H](CC(N)=O)C(=O)N[C@@H](CC(=O)O)C(=O)N[C@@H]1C(=O)NCC(=O)N[C@@H](CCCN)C(=O)N[C@@H](CC(=O)O)C(=O)N[C@H](C)C(=O)N[C@@H](CC(=O)O)C(=O)NCC(=O)N[C@H](CO)C(=O)N[C@@H]([C@H](C)CC(=O)O)C(=O)N[C@@H](CC(=O)c2ccccc2N)C(=O)O[C@@H]1C [Daptomycin, daptomycin] | 0.99 (0.62-1.25) | 1.19 (1.03-1.5) | 1.09 (0.56-1.5) | 1.19 (1.03-1.5) | 1.21 (1.03-1.5) | 1.39 (1.03-2.5) | 1.19 (1.03-1.5) | 1.19 (1.03-1.5) |  |  |  |  |  |  |  |  | 
piperacillin/tazobactam |  |  |  |  |  |  |  |  |  | 64 | 64 |  | 64 | 0.59 | >1* | 0.59 | Avg ΣFIC (range) [4, 11]: 0.87 (0.56-1.12) and 0.63 (0.5-1.03); Avg ΣFIC (range) [4, 15]: 0.98 (0.62-1.25) and 0.63 (0.24-1.03); Avg ΣFIC (range) ([4]; β-lactam combined with HybPEP35-1, E. coli 70752): 0.67; Avg ΣFIC (range) ([4]; β-lactam combined with PEP-52, E. coli 70752): >1*; Avg ΣFIC (range) ([4]; β-lactam combined with Scrambled PEP35, E. coli 70752): 0.67
LKQKIKHVVKLKVVVKLRSQLVKRKQN (listed as Mus sp.) [PEP35] |  |  |  |  |  |  |  |  | 1024 and 2048/2048/2048 |  |  | 512 and 512/512/512 |  |  |  |  | synergy (in words) [4]: not synergistic
KKKKKLQLQLNLIKKKVQVSVVVVRRH (Reordered human peptide sequence) [Scrambled PEP35] |  |  |  |  |  |  |  |  |  | 2048 | 2048 |  | 1024 |  |  |  | synergy (in words) [4]: not synergistic (except at low level with ceftriaxone)
CC(=O)NC[C@H]1CN(c2ccc(N3CCOCC3)c(F)c2)C(=O)O1 [Linezolid, linezolid] | 0.86 (0.56-1.12) | 1.05 (0.75-1.25) | 0.74 (0.53-1.12) | 0.92 (0.75-1.12) | 0.63 (0.5-1.06) | 0.92 (0.62-1.12) | 1.05 (0.75-1.25) | 1.19 (1.03-1.5) |  |  |  |  |  |  |  |  | 
CN(C)c1cc(NC(=O)CNC(C)(C)C)c(O)c2c1C[C@H]1C[C@H]3[C@H](N(C)C)C(O)=C(C(N)=O)C(=O)[C@@]3(O)C(O)=C1C2=O [Tigecycline, tigecycline] | 0.68 (0.53-1.03) | 1.0 (0.56-1.12) | 0.91 (0.62-1.12) | 0.98 (0.75-1.12) | 0.91 (0.62-1.12) | 0.92 (0.56-1.25) | 1.1 (1.0-1.25) | 1.1 (1.0-1.25) |  |  |  |  |  |  |  |  | 
C[C@@H](O)[C@H]1C(=O)N2C(C(=O)O)=C(S[C@@H]3CN[C@H](C(=O)N(C)C)C3)[C@H](C)[C@H]12 [Meropenem] |  |  |  |  |  |  |  |  |  | 16 | 16 | 8 and 8/8 |  | 1.21 | >1* | 1.21 | Avg ΣFIC (range) [4, 15]: 1.21 (1.03-1.5)
CN[C@H](CC(C)C)C(=O)N[C@H]1C(=O)N[C@@H](CC(N)=O)C(=O)N[C@H]2C(=O)N[C@H]3C(=O)N[C@H](C(=O)N[C@H](C(=O)O)c4cc(O)cc(O)c4-c4cc3ccc4O)[C@H](O)c3ccc(c(Cl)c3)Oc3cc2cc(c3O[C@@H]2O[C@H](CO)[C@@H](O)[C@H](O)[C@H]2O[C@H]2C[C@](C)(N)[C@H](O)[C@H](C)O2)Oc2ccc(cc2Cl)[C@H]1O [Vancomycin] | 1.26 (1.06-1.5) | 1.1 (1.0-1.25) | 0.86 (0.53-1.25) | 1.2 (1.015-1.5) | 0.91 (0.56-1.25) | 1.05 (0.75-1.25) | 1.09 (1.0-1.25) | 1.27 (1.015-2.5) | 4/4 |  |  | 4/4 |  |  |  |  | MIC ([3]; VISA 95): 2 and 4
